Publication PMC11555678, “Improved Broad Spectrum Antifungal Drug Synergies with Cryptomycin, a Cdc50-Inspired Antifungal Peptide” (ACS Infectious Diseases, 2024)
≈ marks a conversion by molar mass, not a printed value. Read-outs that look alike come from different tables or passages of the source. Square brackets hold non-standard residues; d marks the D form. Ends that are not written are not given here. Peptide text beside a SMILES is read from it. * marks the point of attachment. Myristoyl = CCCCCCCCCCCCCC(=O)*; Orn = NCCC[C@H](N)C(=O)O

How the values were obtained:
[1] = tested on: C. neoformans H99; assay type: cell-based, Cryptococcus neoformans; conditions: 2× MIC; subsequent rebound of the population through 8 h; RPMI1640, 30 °C
Description: Culture tubes were prepared with aliquots of 2.0 mL of RPMI1640 (containing Q, MOPS, pH = 7, no phenol red). The tubes were sealed to prevent evaporation and were equilibrated with the incubation chamber overnight, at 30 °C. On the day of the experiment, overnight yeast cultures in YPD were washed twice with DD-H2O and resuspended in DD-H2O. The OD600 of the cell suspension was adjusted to 4.6, ≈2 × 10^6 cfu/mL, in DD-H2O. A 200 μL aliquot of adjusted cell suspension was added systematically to each tube, followed by 200 μL sampling for the 0 h time point. Immediately after sampling, the antifungal compounds were added, and the tubes were placed in the incubator at 30 °C with shaking at 225 rpm. The sampled aliquot was transferred to a 96-well plate and serially diluted six times, 10-fold each time. The resulting cell suspensions were spotted onto YPD plates in a grid pattern of 5 μL per spot. Subsequently, tubes were briefly removed from the incubator, and 100 μL aliquots were sampled at 2, 4, 6, and 8 h time points. Cells were counted on the YPD plates at either 24 or 48 h after plate spotting, depending on when the colonies were countable. Images of the YPD plates were recorded on the Bio-Rad Gel imager after 48 h of incubation at 30 °C. […] 2 C = number of colonies counted, Df = dilution factor = 10^n–1, n = column that the cells were counted, and Vf = volume factor = 1/0.005 mL.

[2] = tested on: Cn crm1Δ; assay: microbe, parasite or virus in culture; assay type: cell-based, Cryptococcus neoformans; conditions: YPD + 0 mM Ca2+, 37 °C, 48 h
Description: (§1) Previous studies have shown that modifying microbiological media with salts such as CaCl2 can have a drastic effect on the growth of fungi and their responses to antifungals.[19],[35] In the case of CaCl2, the divalent cation, Ca^2+, is involved in fungal cell stress response. To understand how the peptide activity may involve calcium and stress response, the MICs of KKOO, KKOO-NH2, FLC, and CAS were assessed as a function of the calcium concentration in liquid YPD media. It was observed that calcium enrichment completely desensitized the wild-type strain to KKOO and KKOO-NH2, Tables 7 and 8, respectively. Effects of calcium enrichment on the susceptibility of Cryptococcus to CAS similar to literature values were recorded, Supporting Information, Table S7.[35]
(§2) All microdilution assays with fungi were carried out in accordance with CLSI protocols from M27 for yeasts and M38 for filamentous fungi, respectively, unless otherwise specified.[64],[65] Briefly, 96-well plates were charged with RPMI1640 media, with operating volume in the first column, 200 μL, and half operating volume, 100 μL, in the remaining wells. Drug stock solution in DMSO was aliquoted into the first well in each row. Half of the volume in the dosed well was serially diluted 2-fold until column 11. Column 11 was used as the negative growth control, and column 12 was used as the positive growth control. ON yeast cultures in YPD were washed twice in DD-H2O, resuspended in PBS, and adjusted to 5000 cfu/mL in RPMI. The 96-well plate was inoculated with 100 μL aliquots of cell suspension per well. Plates were incubated at 37 °C for 2 days.

[3] = tested on: Cn Crm1-oe; assay: microbe, parasite or virus in culture; assay type: cell-based, Cryptococcus neoformans; conditions: YPD + 0 mM Ca2+, 37 °C, 48 h
Description: as §1, §2

[4] = tested on: Cn apt1Δ; assay: microbe, parasite or virus in culture; assay type: cell-based, Cryptococcus neoformans; conditions: 37 °C, 48 h
Description: as §1, §2

[5] = tested on: C. glabrata FKS1-S629P; assay: microbe, parasite or virus in culture; assay type: cell-based, Candida glabrata; conditions: compound alone; RPMI1640, 37 °C, 48 h
Description: as §2

[6] = tested on: C. glabrata FKS2-S663P; assay: microbe, parasite or virus in culture; assay type: cell-based, Candida glabrata; conditions: compound alone; RPMI1640, 37 °C, 48 h
Description: as §2

[7] = tested on: C. glabrata 2001; assay: microbe, parasite or virus in culture; assay type: cell-based, Candida glabrata
Description: as §2

[8] = tested on: C. auris B11245; assay: microbe, parasite or virus in culture; assay type: cell-based, Candida auris; conditions: compound alone; RPMI1640, 37 °C, 48 h; * = paradoxical growth observed (CAS)
Description: as §2

[9] = tested on: Cn cdc50Δ; assay: microbe, parasite or virus in culture; assay type: cell-based, Cryptococcus neoformans; conditions: 37 °C, 48 h
Description: as §1
(§3) In order to control for the effects of enriching YPD with a divalent cation, MICs and ROS production were also measured as a function of the MgCl2 supplement at the same millimolar concentrations of cation as in the CaCl2-modified experiments. […] No peptide susceptibility changes were observed against Cn cdc50Δ in magnesium-enriched media, Table S9. ROS production in H99 induced by peptide exposure was inhibited after 30 min of treatment in the magnesium-enriched condition, similar to the levels observed in the calcium-enriched media at 16 μg/mL KKOO-NH2, Figure S1. […] The link between peptide activity and calcium homeostasis may be vital in understanding precisely how the peptide kills fungal cells and requires more research to elucidate.
as §2

[10] = tested on: Cn H99; assay: microbe, parasite or virus in culture; assay type: cell-based, Cryptococcus neoformans; conditions: 37 °C, 48 h
Description: as §1, §3, §2

[11] = tested on: A. fumigatus AF293; assay: microbe, parasite or virus in culture; assay type: cell-based, Aspergillus fumigatus; conditions: compound alone; RPMI1640, 37 °C, 48 h; * = paradoxical growth observed (CAS)
Description: as §2

[12] = tested on: C. neoformans MRL862; assay: microbe, parasite or virus in culture; assay type: cell-based, Cryptococcus neoformans; conditions: compound alone; RPMI1640, 37 °C, 48 h
Description: as §2

[13] = tested on: C. neoformans apt4Δ; assay: microbe, parasite or virus in culture; assay type: cell-based, Cryptococcus neoformans; conditions: compound alone; RPMI1640, 37 °C, 48 h
Description: as §2

[14] = tested on: C. neoformans Crm1^OE; assay: microbe, parasite or virus in culture; assay type: cell-based, Cryptococcus neoformans; conditions: compound alone; RPMI1640, 37 °C, 48 h
Description: as §2

[15] = tested on: C. neoformans apt2Δ; assay: microbe, parasite or virus in culture; assay type: cell-based, Cryptococcus neoformans; conditions: compound alone; RPMI1640, 37 °C, 48 h
Description: as §2

[16] = tested on: C. neoformans apt1Δ; assay: microbe, parasite or virus in culture; assay type: cell-based, Cryptococcus neoformans; conditions: compound alone; RPMI1640, 37 °C, 48 h
Description: as §2

[17] = tested on: C. neoformans crm1Δ; assay: microbe, parasite or virus in culture; assay type: cell-based, Cryptococcus neoformans; conditions: compound alone; RPMI1640, 37 °C, 48 h
Description: as §2

[18] = tested on: C. neoformans apt3Δ; assay: microbe, parasite or virus in culture; assay type: cell-based, Cryptococcus neoformans; conditions: compound alone; RPMI1640, 37 °C, 48 h
Description: as §2

[19] = tested on: C. neoformans H99; assay: microbe, parasite or virus in culture; assay type: cell-based, Cryptococcus neoformans
Description: as §2

[20] = tested on: C. neoformans cdc50Δ; assay: microbe, parasite or virus in culture; assay type: cell-based, Cryptococcus neoformans
Description: as §2

[21] = tested on: C. albicans SC5413; assay: microbe, parasite or virus in culture; assay type: cell-based, Candida albicans
Description: as §2

[22] = tested on: C. neoformans H99; design: method as in PMID 35377230; conditions: with CAS, additive drug synergy; cited from earlier work
Source text: We endeavored to develop an inhibitor to target flippase function in Cn and harness the critical importance of Cdc50 in antifungal drug resistance and virulence. […] The peptide sequence was identified using an epitope approach. First, anti-Cdc50 polyclonal antibodi ...

[23] = tested on: C. neoformans H99; conditions: previously published peptide; cited from earlier work
[24] = Table S1, unit and conditions not given (MICs elsewhere in μg/mL)
[25] = compound alone, RPMI1640, 37 °C, 48 h

CCCCCCCCCCCCCC(=O)N[C@@H](Cc1c[nH]c2ccccc12)C(=O)NCC(=O)NCC(=O)N[C@H](C(=O)N[C@@H](CCCN)C(=O)N[C@@H](CCCN)C(=O)N[C@@H](CC(N)=O)C(=O)N[C@@H](Cc1ccc(O)cc1)C(=O)N[C@@H](C)C(=O)O)[C@@H](C)CC [KKOO] (Myristoyl-WGGI[Orn][Orn]NYA-OH)
time of peak killing activity [1]: ≤ 2 h | MIC [2]: 8 µg/mL | MIC [3]: 8 µg/mL | MIC ([4]; YPD + 0 mM Ca2+): 8 µg/mL | MIC ([4]; YPD + 2.5 mM Ca2+): 32 µg/mL | MIC [5]: 16 µg/mL (≈ 13.1 µM) | MIC [6]: 16 µg/mL (≈ 13.1 µM) | MIC (SAR screen peptides) [7, 24]: 16 | MIC [7, 25]: 16 µg/mL (≈ 13.1 µM) | MIC [8]: > 128 µg/mL | MIC ([9]; YPD + 0 mM Ca2+): 4 µg/mL | MIC ([9]; YPD + 0 mM Mg2+, unit inferred): 8 µg/mL | MIC ([9]; YPD + 2.5 mM Ca2+): 8 µg/mL | MIC ([9]; YPD + 2.5 mM Mg2+, unit inferred): 8 µg/mL | MIC ([9]; YPD + 5 mM Ca2+): 8 µg/mL | MIC ([9]; YPD + 5 mM Mg2+, unit inferred): 8 µg/mL | MIC ([9]; YPD + 10 mM Ca2+): 8 µg/mL | MIC ([9]; YPD + 10 mM Mg2+, unit inferred): 4 µg/mL | MIC ([9]; YPD + 20 mM Ca2+): 8 µg/mL | MIC ([9]; YPD + 20 mM Mg2+, unit inferred): 8 µg/mL | MIC ([10]; YPD + 0 mM Ca2+): 32 µg/mL | MIC ([10]; YPD + 0 mM Mg2+): 16 µg/mL | MIC ([10]; YPD + 2.5 mM Ca2+): >128 µg/mL | MIC ([10]; YPD + 2.5 mM Mg2+): 32 µg/mL | MIC ([10]; YPD + 5 mM Ca2+): >128 µg/mL | MIC ([10]; YPD + 5 mM Mg2+): 32 µg/mL | MIC ([10]; YPD + 10 mM Ca2+): >128 µg/mL | MIC ([10]; YPD + 10 mM Mg2+): 32 µg/mL | MIC ([10]; YPD + 20 mM Ca2+): >128 µg/mL | MIC ([10]; YPD + 20 mM Mg2+): 128 µg/mL | MIC [11]: > 128 µg/mL | MIC [12]: 8 µg/mL (≈ 6.57 µM) | MIC [13]: 8 µg/mL (≈ 6.57 µM) | MIC [14]: 8 µg/mL (≈ 6.57 µM) | MIC [15]: 8 µg/mL (≈ 6.57 µM) | MIC [16]: 4 µg/mL (≈ 3.28 µM) | MIC [17]: 8 µg/mL (≈ 6.57 µM) | MIC [18]: 8 µg/mL (≈ 6.57 µM) | MIC (SAR screen peptides) [19, 24]: 16 | MIC [19, 25]: 16 µg/mL (≈ 13.1 µM) | MIC (SAR screen peptides) [20, 24]: 4 | MIC [20, 25]: 4 µg/mL (≈ 3.28 µM) | MIC (SAR screen peptides) [21, 24]: 16 | MIC [21, 25]: 32 µg/mL (≈ 26.3 µM)

AW9-Ma (Myristoyl-WGGIKKNYA)
fractional inhibition concentration (FIC) index [22]: 0.5 | MIC [23]: 64 µg/mL
